Earlier results as cited in patent publication US20240269237A1, “PHARMACEUTICAL COMPOSITION AND KIT COMPRISING AN IMMUNOMODULATORY SUBSTANCE FOR TREATING DISEASES” (ellennbe GmbH, priority 2021, published 2024).

Key:
[1] = test system: ankylosing spondylitis (Bechterew's disease); conditions: for effect of earlier treatment with biologics: Patient 11, history, within half a year the biologics lost their effect; for tolerability of earlier TNF-α inhibitors: human, in vivo
[2] = test system: rheumatoid arthritis; conditions: for adverse effects of earlier treatment: Patient 7, history, regimen of MTX and upadacitinib tried a second time
[3] = test system: perfusion of the skin; conditions: healthy subjects

golimumab [Simponi®]
effect of earlier treatment with biologics [1]: little effect from the outset

tocilizumab
efficacy of basic treatment ([2]; Patient 7, 162 mg per week): only partially efficient

adalinumab [Humira®]
effect of earlier treatment with biologics [1]: little effect from the outset

Symponi®: TNF-α inhibitor
tolerability of earlier TNF-α inhibitors [1]: strong adverse side effects

CC[C@@H]1CN(C(=O)NCC(F)(F)F)C[C@@H]1c1cnc2cnc3[nH]ccc3n12 [upadacitinib]
adverse effects of earlier treatment [2]: severe adverse effects (tendency to fibrosis in the lungs and sinusitis)

CN(Cc1cnc2nc(N)nc(N)c2n1)c1ccc(C(=O)N[C@@H](CCC(=O)O)C(=O)O)cc1 [MTX, methotrexate]
adverse effects of earlier treatment [2]: severe adverse effects (tendency to fibrosis in the lungs and sinusitis)

COC(=O)c1cccnc1 [MN, methyl nicotinate]
perfusion response ([3]; 50 μl of 20 mmol/l topically): reproducible perfusion response
time course of perfusion increase ([3]; topical application): reaches a stable plateau phase after five minutes

Remicade®: TNF-α inhibitor
tolerability of earlier TNF-α inhibitors [1]: strong adverse side effects

etanercept [Enbrel®]
tolerability of earlier TNF-α inhibitors [1]: strong adverse side effects
